Inconclusive results and toxic doses are left out. Cut-off read from the data, not from the text of the source: active = T/C of 150% or more; inactive = T/C below 125%.
Test system: L1210 leukemia ip in BDF1 mice, survival T/C
Test: NCI In Vivo Anticancer Drug Screen. Data for tumor model L1210 Leukemia (intraperitoneal) in B6D2F1 (BDF1) mice
Conditions: endpoint: mean survival time, higher = longer survival
Method in brief: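 Tumor was transplanted into mice, which were then dosed with test compound or vehicle alone. Survival was recorded for each group, and the treated figure was expressed relative to the control figure.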

[1] = dose: 100.0 mg/kg/injection, schedule: Q04DX003 (ip), vehicle: saline with Tween-80
[2] = dose: 200.0 mg/kg/injection, schedule: Q04DX003 (ip), vehicle: saline with Tween-80
[3] = dose: 400.0 mg/kg/injection, schedule: Q04DX003 (ip), vehicle: saline with Tween-80
[4] = dose: 100.0 mg/kg/injection, schedule: Q04DX003 (ip), vehicle: Klucel (hydroxypropylcellulose) (HPC)
[5] = dose: 200.0 mg/kg/injection, schedule: Q04DX003 (ip), vehicle: Klucel (hydroxypropylcellulose) (HPC)
[6] = dose: 400.0 mg/kg/injection, schedule: Q04DX003 (ip), vehicle: Klucel (hydroxypropylcellulose) (HPC)

Measured: T/C

Cc1cc(C)cc(C(O)(c2cc(C)cc(C)c2)c2cc(C)cc(C)c2)c1
inactive: [1] 102 % of control | [2] 116 % of control | [3] 94 % of control

OC(CN1CCCCC1)c1ccncc1 (centres undefined)
inactive: dose: 75.0 mg/kg/injection, schedule: Q04DX003 (ip), vehicle: saline 94 % of control | dose: 150.0 mg/kg/injection, schedule: Q04DX003 (ip), vehicle: saline 94 % of control | dose: 300.0 mg/kg/injection, schedule: Q04DX003 (ip), vehicle: saline 96 % of control

COC12C3C=CC4C(C=C3)C4C1C2Br (centres undefined)
inactive: dose: 100.0 mg/kg/injection, schedule: Q01DX001 (ip), vehicle: Klucel (hydroxypropylcellulose) (HPC) 98 % of control | dose: 200.0 mg/kg/injection, schedule: Q01DX001 (ip), vehicle: Klucel (hydroxypropylcellulose) (HPC) 103 % of control | dose: 400.0 mg/kg/injection, schedule: Q01DX001 (ip), vehicle: Klucel (hydroxypropylcellulose) (HPC) 106 % of control

CC(=O)Nc1ccccc1C(=NC1CCCC1)C(=O)NC1CCCC1
inactive: dose: 3.12 mg/kg/injection, schedule: Q01DX009 (ip), vehicle: Klucel (hydroxypropylcellulose) (HPC) 97 % of control | dose: 6.25 mg/kg/injection, schedule: Q01DX009 (ip), vehicle: Klucel (hydroxypropylcellulose) (HPC) 94 % of control | dose: 12.5 mg/kg/injection, schedule: Q01DX009 (ip), vehicle: Klucel (hydroxypropylcellulose) (HPC) 89 % of control | dose: 400.0 mg/kg/injection, schedule: Q01DX009 (ip), vehicle: Klucel (hydroxypropylcellulose) (HPC) 95 % of control

COc1ccc(C(=O)/C=C/c2ccc(Cl)cc2)cc1
inactive: [4] 100 % of control | [5] 95 % of control | [6] 92 % of control

Nc1ccnc2n[nH]nc12
inactive: dose: 100.0 mg/kg/injection, schedule: Q01DX001 (ip), vehicle: saline with Tween-80 111 % of control | [1] 101 % of control | dose: 200.0 mg/kg/injection, schedule: Q01DX001 (ip), vehicle: saline with Tween-80 110 % of control | [2] 100 % of control | dose: 400.0 mg/kg/injection, schedule: Q01DX001 (ip), vehicle: saline with Tween-80 104 % of control | [3] 103 % of control

O=C1c2cc(F)ccc2-c2cc(Br)c([N+](=O)[O-])cc21
inactive: dose: 100.0 mg/kg/injection, schedule: Q01DX001 (ip), vehicle: carboxymethylcellulose (CMC) 97 % of control | dose: 200.0 mg/kg/injection, schedule: Q01DX001 (ip), vehicle: carboxymethylcellulose (CMC) 103 % of control | dose: 400.0 mg/kg/injection, schedule: Q01DX001 (ip), vehicle: carboxymethylcellulose (CMC) 95 % of control

BrCCC[CH2][Sn]([c]1ccccc1)([c]1ccccc1)[c]1ccccc1
inactive: dose: 50.0 mg/kg/injection, schedule: Q01DX009 (ip), vehicle: saline 100 % of control | dose: 100.0 mg/kg/injection, schedule: Q01DX009 (ip), vehicle: saline 100 % of control | dose: 200.0 mg/kg/injection, schedule: Q01DX009 (ip), vehicle: saline 100 % of control

COC(=O)C(C)C(C)=O (centres undefined)
inactive: dose: 100.0 mg/kg/injection, schedule: Q01DX009 (sc), vehicle: olive oil, sesame oil, peanut oil 106 % of control | dose: 100.0 mg/kg/injection, schedule: Q04DX003 (sc), vehicle: olive oil, sesame oil, peanut oil 98 % of control | dose: 200.0 mg/kg/injection, schedule: Q01DX009 (sc), vehicle: olive oil, sesame oil, peanut oil 107 % of control | dose: 200.0 mg/kg/injection, schedule: Q04DX003 (sc), vehicle: olive oil, sesame oil, peanut oil 101 % of control | dose: 400.0 mg/kg/injection, schedule: Q01DX009 (sc), vehicle: olive oil, sesame oil, peanut oil 106 % of control | dose: 400.0 mg/kg/injection, schedule: Q04DX003 (sc), vehicle: olive oil, sesame oil, peanut oil 98 % of control

COc1nc(=S)nc(OC)[nH]1
inactive: dose: 100.0 mg/kg/injection, schedule: Q01DX Z (ip), vehicle: methylcellulose (MC) 95 % of control

O=C(O)c1ccccc1C(=O)Nc1ccc(O)cc1
inactive: dose: 75.0 mg/kg/injection, schedule: Q01DX009 (ip), vehicle: saline 102 % of control | dose: 150.0 mg/kg/injection, schedule: Q01DX009 (ip), vehicle: saline 100 % of control | dose: 300.0 mg/kg/injection, schedule: Q01DX009 (ip), vehicle: saline 117 % of control

Cc1c(Cl)cccc1N=Cc1ccccc1O
inactive: dose: 50.0 mg/kg/injection, schedule: Q01DX009 (ip), vehicle: Klucel (hydroxypropylcellulose) (HPC) 96 % of control | dose: 100.0 mg/kg/injection, schedule: Q01DX009 (ip), vehicle: Klucel (hydroxypropylcellulose) (HPC) 108 % of control | [4] 109 % of control | dose: 200.0 mg/kg/injection, schedule: Q01DX009 (ip), vehicle: Klucel (hydroxypropylcellulose) (HPC) 110 % of control | [5] 107 % of control | [6] 98 % of control

Source: PubChem BioAssay AID248 (DTP/NCI, 2004)
